The values that follow come from paper PMC4295023 (Investigational New Drugs, 2014).

For one data set, the system named is RCC. More on the design: method as in PMID 22056247. To be noted: after first line therapy, cited from earlier work.
The nature of data set [1]: Pharmacokinetic analysis of blood samples (noncompartmental). To be noted: for AUC(0-t) / Cmax: human. The class given is in vivo, human. How it is done:
Blood samples were collected pre-, 1, 2, 4, 6, 8, 12, and 24 h post-dose on Days 1 and 2 of Cycles 1 and 2. […] Noncompartmental PK parameters were calculated using WinNonlin (Pharsight, Mountain View, CA).

Like-named read-outs stand apart in the source and are kept apart here.

For `CNC(=O)c1ccccc1Sc1ccc2c(/C=C/c3ccccn3)n[nH]c2c1` [axitinib], the mPFS in the data set on RCC (axitinib arm) is recorded as 6.7 months.
Regarding `CNC(=O)c1cc(Oc2ccc(NC(=O)Nc3ccc(Cl)c(C(F)(F)F)c3)cc2)ccn1` [sorafenib, reference compound], the mPFS in the data set on RCC (sorafenib arm) is reported as 4.7 months. Besides, in data set [1] (blood, sorafenib, steady state (cycle 2), HCC patients, tivantinib 360 mg BID and sorafenib 400 mg BID, read-out: AUC0-12h), the AUC(0-t) was determined as 43300 ng·h/mL. Moreover, in data set [1] (sorafenib, steady state (cycle 2), non-HCC patients, tivantinib 360 mg BID and sorafenib 400 mg BID), the AUC0-12h is 39,906 ± 20,604 ng*hr/mL.
Regarding `O=C1NC(=O)[C@@H](c2cn3c4c(cccc24)CCC3)[C@@H]1c1c[nH]c2ccccc12` [tivantinib, Tivantinib], the AUC(0-t) was 6690 ng·h/mL in data set [1] (in vivo, tivantinib, cycle 2, one HCC patient, tivantinib 240 mg BID with sorafenib 400 mg BID, read-out: AUC0-12 h); 12400 ng·h/mL in data set [1] (in vivo, tivantinib, steady state (cycle 2), HCC patients, tivantinib 360 mg BID and sorafenib 400 mg BID, read-out: AUC0-12h); 8740 ng·h/mL in data set [1] (in vivo, tivantinib, steady state (cycle 2), non-HCC patients, tivantinib 360 mg BID and sorafenib 400 mg BID, read-out: AUC0-12h). Besides, the Cmax in data set [1] (in vivo, tivantinib, cycle 2, one HCC patient, tivantinib 240 mg BID with sorafenib 400 mg BID, read-out: Cmax) was determined as 879 ng/mL; in data set [1] (in vivo, tivantinib, steady state (cycle 2), HCC patients, tivantinib 360 mg BID and sorafenib 400 mg BID, read-out: mean Cmax) it was 1510 ng/mL; in data set [1] (in vivo, tivantinib, steady state (cycle 2), non-HCC patients, tivantinib 360 mg BID and sorafenib 400 mg BID, read-out: mean Cmax) it was 1320 ng/mL.

Usually Cmax stands for the maximum level reached in the sampled fluid or tissue.
